According to PubChem BioAssay AID504322 (Emory University Molecular Libraries Screening Center, 2011):
Activity calls are given as the source filed them. How the calls were made is not given here.

Each compound was assayed on CHOP reporter cell assay, percent of control (assay: CHOP reporter inhibitor potency, dose response, cell-based (AID 504322);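 further: CHO cells carrying a CHOP reporter stimulated with tunicamycin to induce ER stress; potency is for inhibition of the stress-induced reporter signal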).
`CN(CCCC[C@H](CNCc1ccc(-c2ccccc2)cc1)N1C[C@H](c2ccccc2)N(CCc2ccc(Cl)c(Cl)c2)C(=O)C1=O)Cc1ccc(-c2ccccc2)cc1` was tested, and the IC50 was 9.37 µM (inactive). For `CCCCc1ccc(NC(=S)Nc2ccc(Cl)c(S(=O)(=O)N(C)C)c2)cc1`, the IC50 was > 10 µM (inactive). For `O=C(Nc1ccc(-c2nc3ccccc3o2)cc1)c1ccc(N2CCOCC2)c([N+](=O)[O-])c1`, the IC50 was 3.54 µM. `CCC(C)[C@@H](NC(=O)OC(C)(C)C)c1nnc(S(=O)(=O)Cc2cccc(C)c2)o1` (stereo partly drawn) showed an IC50 of 4.78 µM. Work on `Cc1ccc(-n2c(Cl)c(Cl)nc(Cl)c2=O)cc1` yielded an IC50 of 1.04 µM. For `CC1CCCC(NC(=O)COC(=O)/C=C/c2ccc3c(c2)OCO3)C1C` (stereo not drawn), the IC50 was > 10 µM (inactive). In the case of `FC(F)(F)c1cccc(NC(=S)NC(c2ccccc2)c2ccccc2)c1`, the IC50 is reported as 9.54 µM (inactive). With `CCCNC(=O)c1nnsc1S(=O)(=O)c1ccc(Cl)cc1` the IC50 was 2.02 µM (inactive). With `CCOC(=O)C1=C(c2ccc(OC)cc2)C(=O)c2ccccc2C1=O` the IC50 was 8.81 µM (inactive). With `CC1(c2ccccc2)CC(C)(C)N2C(=O)/C(=C3\SC(=S)NC3=O)c3cccc1c32` (stereo not drawn) the IC50 was 6.98 µM (inactive). For `Cc1cc(C)n(-c2nc(N(c3ccccc3)c3ccccc3)nc(-n3nc(C)cc3C)n2)n1`, the IC50 was 9.34 µM (inactive). In the case of `Cc1nc(Nc2nc(CSc3nc4ccccc4[nH]3)cc(=O)[nH]2)nc2ccccc12`, the IC50 is reported as 5.68 µM (inactive). `Nc1ccc(SC(F)(F)F)cc1C(=O)c1ccccc1` gave an IC50 of 4.97 µM. For `Cc1cc(C(=O)CCl)c(C)n1-c1cccc(S(=O)(=O)N2CCOCC2)c1`, the IC50 was > 10 µM (inactive). With `O=C(CNc1cccc(C(F)(F)F)c1)N/N=C/c1cccc(Br)c1` the IC50 was > 10 µM (inactive). `O=C(CCCOc1ccc(Cl)cc1Cl)N/N=C\C1CCCCC1` was tested, and the IC50 was 5.03 µM (inactive). With `Cc1ccc(OCC(=O)N/N=C/c2cn[nH]c2-c2ccc(Cl)c(Cl)c2)cc1` the IC50 was 6.3 µM (inactive). `O=C(/C=C\c1cn(-c2ccccc2)nc1-c1ccccc1)Nc1nccs1` was tested, and the IC50 was 6.03 µM (inactive). `Cc1ccc2[nH]c(O)c(N=NC(=O)CCc3ccccc3)c2c1Br` showed an IC50 of 4.27 µM. With `O=C(Cc1ccccc1)NC(=S)Nc1cccc(C(F)(F)F)c1` the IC50 was 3.61 µM (inactive). With `CC1=CC(C)(C)N(C(=O)c2ccc(F)cc2)c2cc3c(cc21)OCO3` the IC50 was 5.31 µM (inactive). `CCCc1cc(=O)[nH]c(Nc2ccc(N3CCCCC3)cc2)n1` was tested, and the IC50 was 7.76 µM (inactive). `Cc1ccc(S(=O)(=O)Nc2ccc(NC(=O)Nc3cccc(C(F)(F)F)c3)cc2)cc1` was tested, and the IC50 was 9.48 µM (inactive). In the case of `OC1(c2cccc(C(F)(F)F)c2)CCN(c2ncnc3c2[nH]c2ccc(F)cc23)CC1`, the IC50 is reported as 4.54 µM (inactive). Compound `Cc1nn(-c2ccccc2Cl)c(Cl)c1/C=N/Nc1nc2ccccc2s1` has an IC50 of less than 0.16 µM. In the case of `CCOc1ccc(-c2nc(CSCC(=O)NCc3ccco3)c(C)o2)cc1`, the IC50 is reported as less than 0.16 µM. For `Cc1cc(C)cc(OC2CCCCC2NS(=O)(=O)c2ccccc2)c1` (stereo not drawn), the IC50 was > 10 µM (inactive). With `CCCCCC1CC(CC(=O)Nc2ccc([N+](=O)[O-])cc2)C(=O)O1` (stereo not drawn) the IC50 was 9.17 µM (inactive). For `NC(=O)CC(NC(=O)Cc1cccc2ccccc12)c1ccc(NCc2ccc(F)cc2)c([N+](=O)[O-])c1` (stereo not drawn), the IC50 was > 10 µM (inactive). With `O=C(Nc1ccccc1C(F)(F)F)c1cc(-c2ccc(O)cc2)on1` the IC50 was 9.47 µM (inactive). With `O=[N+]([O-])c1ccc(NC(=S)NCCc2ccc(Cl)cc2)cc1` the IC50 was > 10 µM (inactive). With `CCOC(=O)c1c(/N=C/c2c(O)n(-c3cccc(C)c3)c(=O)[nH]c2=O)sc2c1CCCC2` the IC50 was 2.39 µM. For `Cc1ccc(-c2nn(CC(=O)NCc3cc(-c4nn(C)c(=O)c5ccccc45)ccc3C)c(=O)c3ccccc23)cc1`, the IC50 was 9.88 µM (inactive). With `C=CCn1c(CCc2cc(C(C)(C)C)c(O)c(C(C)(C)C)c2)n[nH]c1=S` the IC50 was 7 µM (inactive). In the case of `O=C(CCl)Nc1ccc(Sc2ccc(NC(=O)CCl)cc2)cc1`, the IC50 is reported as 4.97 µM. `FC(F)(F)c1nnc(-c2ccccc2)nc1Sc1ccc(Cl)cc1` was tested, and the IC50 was > 10 µM (inactive). With `O=C(Nc1ccccc1)C1=C(c2ccccc2)S(=O)(=O)CCS1(=O)=O` the IC50 was 9.67 µM (inactive). `COc1ccc(-c2nc(-c3ccc(NC(=O)c4ccc(Br)o4)cc3)no2)cc1OC` was tested, and the IC50 was > 10 µM (inactive). `CC(C)(C)c1ccc(C(=O)Nc2ccc(CC(=O)O)cc2)o1` was tested, and the IC50 was less than 0.16 µM. `OC(CNCCc1ccc(C(F)(F)F)cc1)COc1cccc2ccccc12` (stereo not drawn) was tested, and the IC50 was < 0.16 µM (inactive). `CC(C)(C)c1ccc(C(=O)NNC(=O)c2cccc(Br)c2)cc1` was tested, and the IC50 was > 10 µM (inactive). For `CCOC(=O)c1c(C(C)(C)C)oc2ccc(O)cc12`, the IC50 was 9.38 µM (inactive). In the case of `O=C(c1nnsc1S(=O)(=O)c1ccc(Cl)cc1)N1CCOCC1`, the IC50 is reported as 9.43 µM (inactive). With `CC(C)(C)c1ccc(C(O)CCCN2CCC(C(O)(c3ccccc3)c3ccccc3)CC2)cc1` (stereo not drawn) the IC50 was 4.12 µM (inactive). For `O=C(NC(c1ccccc1)c1c(O)ccc2ccccc12)c1ccccc1Cl` (stereo not drawn), the IC50 was > 10 µM (inactive). With `CCCOc1ccc(Cc2c(Cl)nc(SC)nc2NC)cc1` the IC50 was 8.18 µM (inactive). For `O=C(O)c1cccc(COc2ccc(CO)cc2Cl)c1`, the IC50 was less than 0.16 µM. `O=C(Nc1ccc(S(=O)(=O)N2CCOCC2)cc1)c1ccc(CN2CCc3ccccc3C2)cc1` was tested, and the IC50 was less than 0.16 µM.
